According to patent US20240109864A1, “SUBSTITUTED PYRAZOLYL PIPERIDINE CARBOXYLIC ACIDS” (BAYER AKTIENGESELLSCHAFT, priority 2020, published 2024):
Counter-ions that a name gives are not always drawn.

Target: T1, recombinant guanylate cyclase reporter cell line (Rattus norvegicus, UniProt P20595)
T1 construct: expressed in transfected cells
T1 sequence (P20595 1-619): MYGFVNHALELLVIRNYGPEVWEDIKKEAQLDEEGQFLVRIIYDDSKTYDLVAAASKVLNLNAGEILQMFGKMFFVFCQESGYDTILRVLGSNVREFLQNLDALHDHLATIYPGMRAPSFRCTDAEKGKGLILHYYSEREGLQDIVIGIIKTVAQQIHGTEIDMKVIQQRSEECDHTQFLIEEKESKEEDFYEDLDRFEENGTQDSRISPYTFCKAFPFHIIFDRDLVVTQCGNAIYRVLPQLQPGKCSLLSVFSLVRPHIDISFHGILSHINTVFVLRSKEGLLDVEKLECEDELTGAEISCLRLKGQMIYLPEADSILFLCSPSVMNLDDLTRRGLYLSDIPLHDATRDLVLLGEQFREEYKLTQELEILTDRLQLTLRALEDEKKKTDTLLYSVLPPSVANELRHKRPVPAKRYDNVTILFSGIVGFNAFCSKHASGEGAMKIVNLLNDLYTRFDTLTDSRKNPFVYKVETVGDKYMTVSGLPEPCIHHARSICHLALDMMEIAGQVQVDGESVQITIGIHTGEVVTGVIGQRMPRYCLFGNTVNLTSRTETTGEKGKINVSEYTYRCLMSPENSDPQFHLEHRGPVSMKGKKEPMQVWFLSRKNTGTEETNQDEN
T1 sequence (P19686 1-690 partner): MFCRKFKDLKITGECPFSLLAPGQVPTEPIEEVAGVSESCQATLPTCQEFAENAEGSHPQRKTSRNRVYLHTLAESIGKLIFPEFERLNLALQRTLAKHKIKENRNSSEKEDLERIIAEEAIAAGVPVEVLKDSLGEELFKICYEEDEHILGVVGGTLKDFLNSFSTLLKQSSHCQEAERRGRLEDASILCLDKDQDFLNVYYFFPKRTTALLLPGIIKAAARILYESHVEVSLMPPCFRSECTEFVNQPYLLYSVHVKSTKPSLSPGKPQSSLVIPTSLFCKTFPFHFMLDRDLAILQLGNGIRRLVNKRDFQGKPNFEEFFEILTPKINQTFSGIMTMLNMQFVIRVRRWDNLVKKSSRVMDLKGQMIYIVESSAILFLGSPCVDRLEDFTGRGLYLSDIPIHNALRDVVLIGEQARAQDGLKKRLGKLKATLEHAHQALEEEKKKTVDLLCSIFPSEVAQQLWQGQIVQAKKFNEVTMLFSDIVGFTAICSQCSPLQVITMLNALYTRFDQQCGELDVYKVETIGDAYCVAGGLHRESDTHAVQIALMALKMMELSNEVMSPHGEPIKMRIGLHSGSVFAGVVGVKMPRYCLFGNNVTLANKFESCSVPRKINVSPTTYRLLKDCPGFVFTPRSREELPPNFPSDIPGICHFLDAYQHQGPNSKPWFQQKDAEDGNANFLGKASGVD
Test: Effect on a recombinant guanylate cyclase reporter cell line
Format: cell-based
Settings: in some cases mean values from individual determinations; for MEC: MEC = minimum effective concentration; for EC50: half maximal effective concentration
Experimental: The cellular activity of the compounds according to the invention was determined using a recombinant guanylate cyclase reporter cell line, as described in F. Wunder et al., Anal. Biochem. 339, 104-112 (2005).

Structure (SMILES) | MEC | EC50 | MEC (hydrochloride)
O=C(O)c1cnn(C2CCCN(c3cc(Cl)ccc3-c3ccc(N4CCN(CCOC(F)(F)F)CC4)cc3)C2)c1C(F)(F)F (single isomer, unassigned) [Example 35, 1-[1-[5-Chloro-2-[4-[4-[2-(trifluoromethoxy)ethyl]piperazin-1-yl]phenyl]phenyl]-3-piperidyl]-5-(trifluoromethyl)pyrazole-4-carboxylic acid hydrochloride] | 3.0 nM | 17.5 nM | 
O=C(O)c1cnn(C2CCCN(c3cc(Cl)ccc3-c3ccc(N4CCN(C(=O)C5CCC5)CC4)cc3)C2)c1C(F)(F)F (single isomer, unassigned) [Example 49, 1-[1-[5-Chloro-2-[4-[4-(cyclobutanecarbonyl)piperazin-1-yl]phenyl]phenyl]-3-piperidyl]-5-(trifluoromethyl)pyrazole-4-carboxylic acid hydrochloride] | 1.0 nM | 3.5 nM | 
COCCOC(=O)N1CCN(c2ccc(-c3ccc(Cl)cc3N3CCCC(n4ncc(C(=O)O)c4C(F)(F)F)C3)cc2)CC1 (single isomer, unassigned) [Example 62, 1-[1-[5-Chloro-2-[4-[4-(2-methoxyethoxycarbonyl)piperazin-1-yl]phenyl]phenyl]-3-piperidyl]-5-(trifluoromethyl)pyrazole-4-carboxylic acid] | 10.0 nM | 57.5 nM | 
O=C(O)c1cnn(C2CCCN(c3cc(Cl)ccc3-c3ccc(C4CN(CCC(F)(F)F)C4)cc3)C2)c1C(F)(F)F (single isomer, unassigned) [Example 78, 1-[1-[5-Chloro-2-[4-[1-(3,3,3-trifluoropropyl)azetidin-3-yl]phenyl]phenyl]-3-piperidyl]-5-(trifluoromethyl)pyrazole-4-carboxylic acid hydrochloride] | 1.0 nM | 13.2 nM | 
COCCC(=O)N1CCN(c2ccc(-c3ccc(Cl)cc3N3CCCC(n4ncc(C(=O)O)c4C(F)(F)F)C3)cc2)CC1 (single isomer, unassigned) [Example 41, 1-[1-[5-Chloro-2-[4-[4-(3-methoxypropanoyl)piperazin-1-yl]phenyl]phenyl]-3-piperidyl]-5-(trifluoromethyl)pyrazole-4-carboxylic acid] | 3.0 nM | 44 nM | 
CC(C)(F)C(=O)N1CCN(c2ccc(-c3ccc(Cl)cc3N3CCCC(n4ncc(C(=O)O)c4C(F)(F)F)C3)cc2)CC1 (single isomer, unassigned) [Example 39, 1-[1-[5-Chloro-2-[4-[4-(2-fluoro-2-methyl-propanoyl)piperazin-1-yl]phenyl]phenyl]-3-piperidyl]-5-(trifluoromethyl)pyrazole-4-carboxylic acid] | 10.0 nM | 59 nM | 
O=C(O)c1cnn(C2CCCN(c3cc(Cl)ccc3-c3ccc(N4CCN(C(=O)C56CC(F)(C5)C6)CC4)cc3)C2)c1C(F)(F)F (single isomer, unassigned) [Example 51, 1-[1-[5-Chloro-2-[4-[4-(3-fluorobicyclo[1.1.1]pentane-1-carbonyl)piperazin-1-yl]phenyl]phenyl]-3-piperidyl]-5-(trifluoromethyl)pyrazole-4-carboxylic acid] | 3.0 nM | 9.4 nM | 
O=C(O)c1cnn(C2CCCN(c3cc(Cl)ccc3-c3ccc(N4CCN(CC5CC5F)CC4)cc3)C2)c1C(F)(F)F (single isomer, unassigned) [Example 25, 1-[1-[5-Chloro-2-[4-[4-[[2-fluorocyclopropyl]methyl]piperazin-1-yl]phenyl]phenyl]-3-piperidyl]-5-(trifluoromethyl)pyrazole-4-carboxylic acid hydrochloride] |  | 22 nM | 10.0 nM
CNC(=O)N1CCN(c2ccc(-c3ccc(Cl)cc3N3CCCC(n4ncc(C(=O)O)c4C(F)(F)F)C3)cc2)CC1 (single isomer, unassigned) [Example 65, 1-[1-[5-Chloro-2-[4-[4-(methylcarbamoyl)piperazin-1-yl]phenyl]phenyl]-3-piperidyl]-5-(trifluoromethyl)pyrazole-4-carboxylic acid] | 10.0 nM | 56.5 nM | 
CCCC(=O)N1CCN(c2ccc(-c3ccc(Cl)cc3N3CCCC(n4ncc(C(=O)O)c4C(F)(F)F)C3)cc2)CC1 (single isomer, unassigned) [Example 40, 1-[1-[2-[4-(4-Butanoylpiperazin-1-yl)phenyl]-5-chloro-phenyl]-3-piperidyl]-5-(trifluoromethyl)pyrazole-4-carboxylic acid] | 3.0 nM | 19 nM | 
CCN1CCN(c2ccc(-c3ccc(Cl)cc3N3CCCC(n4ncc(C(=O)O)c4C(F)(F)F)C3)cc2)CC1 (single isomer, unassigned) [Example 3, 1-{1-[4-Chloro-4′-(4-ethylpiperazin-1-yl)[1,1′-biphenyl]-2-yl]piperidin-3-yl}-5-(trifluoromethyl)-1H-pyrazole-4-carboxylic acid hydrochloride] | 10.0 nM | 66.5 nM | 
CC(C)(C)CN1CCN(c2ccc(-c3ccc(Cl)cc3N3CCCC(n4ncc(C(=O)O)c4C(F)(F)F)C3)cc2)CC1 (single isomer, unassigned) [Example 18, 1-[1-[5-Chloro-2-[4-[4-(2,2-dimethylpropyl)piperazin-1-yl]phenyl]phenyl]-3-piperidyl]-5-(trifluoromethyl)pyrazole-4-carboxylic acid hydrochloride] | 10.0 nM | 63.5 nM | 
O=C(O)c1cnn(C2CCCN(c3cc(Cl)ccc3-c3ccc(N4CCN(CC5C[C@@H]5F)CC4)cc3)C2)c1C(F)(F)F (single isomer, unassigned) [Example 27, 1-[1-[5-Chloro-2-[4-[4-[[2-fluorocyclopropyl]methyl]piperazin-1-yl]phenyl]phenyl]-3-piperidyl]-5-(trifluoromethyl)pyrazole-4-carboxylic acid hydrochloride] | 3.0 nM | 15 nM | 
O=C(O)c1cnn(C2CCCN(c3cc(Cl)ccc3-c3ccc(N4CCN(C(=O)OC5CC5)CC4)cc3)C2)c1C(F)(F)F (single isomer, unassigned) [Example 57, 1-[1-[5-Chloro-2-[4-[4-(cyclopropoxycarbonyl)piperazin-1-yl]phenyl]phenyl]-3-piperidyl]-5-(trifluoromethyl)pyrazole-4-carboxylic acid] | 1.0 nM | 6.3 nM | 
O=C(O)c1cnn(C2CCCN(c3cc(Cl)ccc3-c3ccc(N4CCN(CC5CC5C(F)(F)F)CC4)cc3)C2)c1C(F)(F)F (single isomer, unassigned) [Example 32, 1-[1-[5-Chloro-2-[4-[4-[[2-(trifluoromethyl)cyclopropyl]methyl]piperazin-1-yl]phenyl]phenyl]-3-piperidyl]-5-(trifluoromethyl)pyrazole-4-carboxylic acid hydrochloride] |  | 9.3 nM | 3.0 nM
O=C(O)c1cnn(C2CCCN(c3cc(Cl)ccc3-c3ccc(N4CCN(CCC(F)F)CC4)cc3)C2)c1C(F)(F)F (single isomer, unassigned) [Example 14, 1-[1-[5-Chloro-2-[4-[4-(3,3-difluoropropyl)piperazin-1-yl]phenyl]phenyl]-3-piperidyl]-5-(trifluoromethyl)pyrazole-4-carboxylic acid hydrochloride] | 0.3 nM | 3.1 nM | 
